Laboratory results as given in PMC7351617 (Journal of neurochemistry, 2020).
Read-outs that look alike come from different tables or passages of the source.

Legend:
[1] = system: α7 nAChRs of rat adrenal chromaffin cells; assay type: cell-based
[2] = system: rat adrenal chromaffin cells (native α3β4* / α3β2β4 nAChRs); settings: SD

## Cl.O=C(N[C@H]1CN2CCC1CC2)c1ccc(Cl)cc1 [PNU282987, N-[(3R)-1-Azabicyclo[2.2.2]oct-3-yl]-4-chlorobenzamide hydrochloride]
[1]
  PNU282987-evoked current amplitudes in some cells (relatively small): 10–20 pA
  cells in which PNU282987 evoked currents: 18/28
[1]; SD
  PNU282987-evoked current amplitude before PNU120596: −29 ± 38 pA

## CC(=O)OCC[N+](C)(C)C [ACh, Acetylcholine (ACh) chloride]
[2]
  ACh-evoked currents: −2730 ± 1789 pA
[2]; n=7
  ACh-evoked currents: −3992 ± 1649 pA

## COc1cc(OC)c(NC(=O)Nc2cc(C)on2)cc1Cl [PNU120596]
[1]
  cells with detectable PNU282987-evoked currents in the presence of PNU120596: 24/28
[1]; SD
  PNU282987-evoked current amplitude in the presence of PNU120596: −1275 ± 1668 pA
  increase in PNU282987-evoked current amplitudes in the presence of PNU120596: 54 ± 99 fold
